Measured values as given in US9062061B2, “Compound having PARP inhibitory activity” (SANTEN PHARMACEUTICAL CO., LTD., priority 2011, dated 2015).
Counter-ions that a name gives are not always drawn. Like-named read-outs stand apart in the source and are kept apart here.

Legend:
[1] = system: rat N-methyl-N-nitrosourea (MNU)-induced retinal degeneration model; test: Retinal degeneration inhibitory activity in rat MNU-induced model (retinal volume by OCT); type: in vivo; conditions: po, 168 h, seventh day, Brown Norway male rats, read-out: Retinal volume reduction inhibition rate (%); for inhibition in vivo at 10 mg/kg: test compound 10 mg/kg orally once 30 minutes before MNU
Protocol: For examining influence of the present compound on the retinal degeneration, retinal degeneration inhibitory activity of test compound was evaluated, using a rat N-methyl-N-nitrosourea (hereinafter, “MNU”)-induced retinal degeneration model. The rat MNU-induced retinal degeneration model is a model animal in which cell death of retinal photoreceptor cell is induced by administration of MNU which is a DNA alkylation agent, and is generally used as a model animal for chorioretinal degenerative diseases such as retinitis pigmentosa (Exp. Eye. Res., 84(2), 285-292 (2007)).
By the previous day of MNU administration, retinal volumes of 8-week-old Brown Norway male rats were measured by using optical coherence tomography (OCT) (product of Carl Zeiss, model number: STRATUS OCT Model 3000). An MNU administration liquid was intraperitoneally administered to the rats at a dose of 50 to 60 mg/kg, and on the seventh day after administration, retinal volumes were measured by using OCT. The normal control group underwent no treatment, and retinal volumes were measured on the same day as the MNU administration group. The number of examples in each group was 4 rats (8 eyes).
(Administration Method) • Test compound-administered group: A solution of each test compound suspended in 1% (w/v) methylcellulose aqueous solution was orally administered once 30 minutes before MNU administration at a dose of 1 to 30 mg/kg. • Normal control group and vehicle-administered group: 1% (w/v) methylcellulose aqueous solution was orally administered once 30 minutes before MNU administration.
According to the following Formula 2, retinal volume reduction inhibition rate (%) was calculated. Retinal volume reduction inhibition rate(%)=(RVX-pre/RVX-post−RVB-pre/RVB-post)/(RVA-pre/RVA-post−RVB-pre/RVB-post)×100 [Formula 2]
RVA-pre: retinal volume before MNU administration of normal control group (mm^3)
RVA-post: retinal volume on the seventh day after MNU administration of normal control group (mm^3)
RVB-pre: retinal volume before MNU administration of vehicle-administered group (mm^3)
RVB-post: retinal volume on the seventh day after MNU administration of vehicle-administered group (mm^3)
RVX-pre: retinal volume before MNU administration of test compound-administered group (mm^3)
RVX-post: retinal volume on the seventh day after MNU administration of test compound-administered group (mm^3)

[2] = system: rat thrombin-induced retinal vascular hyperpermeability model; test: Retinal vascular hyperpermeability inhibitory activity in rat thrombin model (intravitreal protein concentration, Bradford method); type: in vivo; conditions: thrombin 3 U/eye intravitreal; test compound 100 mg/kg orally 1.5 hours before and 22.5 hours after thrombin; Brown Norway male rats
Protocol: For examining the influence of the present compound on retinal vascular hyperpermeability, the retinal vascular hyperpermeability inhibitory activity of the test compound was evaluated using a rat thrombin-induced retinal vascular hyperpermeability model. The rat thrombin-induced retinal vascular hyperpermeability model is an animal in which retinal vascular permeability is increased by administration of thrombin, and is used as a model animal for diabetic retinopathy, diabetic macular edema and so on (IONS, 2000, 41(4), S18, 92).
A thrombin liquid preparation was intravitreally administered to 8-week old Brown Norway male rat at a dose of 3 U/eye, and the vitreous body was collected on the next day of administration, and intravitreal protein concentration was measured by the Bradford method. A normal control group received intravitreal administration of DPBS. The number of examples in each group was 4 rats (7-8 eyes).
(Administration Method) • Test compound-administered group: A solution of each test compound suspended in 1% (w/v) methylcellulose aqueous solution was orally administered in a dose of 100 mg/kg, 1.5 hours before and 22.5 hours after thrombin administration. • Normal control group and vehicle-administered group
According to the following Formula 3, retinal vascular hyperpermeability inhibition rate was calculated. […]

human recombinant PARP1 = molecular target: T1, human recombinant PARP1 (Homo sapiens, UniProt P09874); test: PARP inhibitory activity measurement test (Universal Colorimetric PARP Assay kit, Trevigen); type: biochemical; conditions: compound concentration: 10 μM, read-out: PARP1 inhibition rate (%)
T1 construct: purchased Trevigen 4677-096-K
T1 sequence (P09874 whole entry): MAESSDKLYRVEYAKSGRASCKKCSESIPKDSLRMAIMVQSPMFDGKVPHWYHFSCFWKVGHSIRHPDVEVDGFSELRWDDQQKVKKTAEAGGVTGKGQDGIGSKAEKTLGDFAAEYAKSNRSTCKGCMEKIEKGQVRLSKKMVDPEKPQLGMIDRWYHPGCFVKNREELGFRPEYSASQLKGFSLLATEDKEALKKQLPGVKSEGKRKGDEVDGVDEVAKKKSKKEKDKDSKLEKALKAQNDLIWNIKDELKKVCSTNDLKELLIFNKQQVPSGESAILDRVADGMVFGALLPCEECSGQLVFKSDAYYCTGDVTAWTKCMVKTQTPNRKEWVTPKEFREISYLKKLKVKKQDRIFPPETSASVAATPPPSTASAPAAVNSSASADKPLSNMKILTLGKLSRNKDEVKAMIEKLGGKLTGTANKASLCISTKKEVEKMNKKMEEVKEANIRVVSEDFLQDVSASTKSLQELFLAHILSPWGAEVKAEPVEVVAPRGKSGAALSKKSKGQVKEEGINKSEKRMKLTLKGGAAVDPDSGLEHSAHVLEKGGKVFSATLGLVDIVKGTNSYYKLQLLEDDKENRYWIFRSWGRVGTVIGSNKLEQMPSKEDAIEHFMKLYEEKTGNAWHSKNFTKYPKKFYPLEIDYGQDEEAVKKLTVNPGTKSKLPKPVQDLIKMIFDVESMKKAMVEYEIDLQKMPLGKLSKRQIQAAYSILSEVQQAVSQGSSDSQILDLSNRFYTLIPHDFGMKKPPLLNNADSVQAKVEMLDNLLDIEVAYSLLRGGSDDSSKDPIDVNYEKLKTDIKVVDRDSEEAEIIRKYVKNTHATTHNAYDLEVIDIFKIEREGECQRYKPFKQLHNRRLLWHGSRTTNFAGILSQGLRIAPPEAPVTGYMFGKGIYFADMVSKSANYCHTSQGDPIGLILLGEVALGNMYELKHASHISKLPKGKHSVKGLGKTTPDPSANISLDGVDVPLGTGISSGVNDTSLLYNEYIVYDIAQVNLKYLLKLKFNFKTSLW
How it was run: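 Value is percent inhibition of PARP1 ribosylation of coated histones, read by Strep-HRP colorimetry at 450 nm and normalized to DMSO and enzyme-free controls. Compound was added from a 50 μM solution in PARP buffer. Reaction included activated DNA and biotinylated NAD, 1 h, room temperature; 1–2 replicates.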

SMILES | inhibition at 10 µM (human recombinant PARP1) [%] | inhibition in vivo at 10 mg/kg ([1]; MNU 50 mg/kg i.p.) [%] | further results
O=c1[nH]c2cc(CN3CCC(c4ccccc4)CC3)cn2c2ccccc12 [Compound 2-5, 2-(4-Phenylpiperidin-1-ylmethyl)pyrrolo[1,2-a]quinazolin-5(4H)-one] | 96 | 16 | 
O=c1[nH]c2cc(CN3CC=C(c4ccc(Cl)cc4)CC3)cn2c2ccccc12 [Compound 2-7, 2-[4-(4-Chlorophenyl)-1,2,3,6-tetrahydropyridine-1-ylmethyl]pyrrolo[1,2-a]quinazolin-5(4H)-one] | 99 | 69 | 
O=c1[nH]c2cc(CN3CC=C(c4ccc(F)cc4)CC3)cn2c2ccccc12 [Compound 2-8, 2-[4-(4-Fluorophenyl)-1,2,3,6-tetrahydropyridin-1-ylmethyl]pyrrolo[1,2-a]quinazolin-5(4H)-one] | 100 | 39 | 
O=c1[nH]c2cc(CN3CCC(c4ccc(F)cc4)CC3)cn2c2ccccc12 [Compound 2-14, 2-[4-(4-Fluorophenyl)piperidin-1-ylmethyl]pyrrolo[1,2-a]quinazolin-5(4H)-one] | 100 | 33 | 
O=c1[nH]c2cc(CN3CCN(c4ccccn4)CC3)cn2c2ccccc12 [Compound 2-17, 2-[4-(Pyridin-2-yl)piperazin-1-ylmethyl]pyrrolo[1,2-a]quinazolin-5(4H)-one] | 100 | 48 | 
O=c1[nH]c2cc(CN3CCN(c4ccc(Cl)cn4)CC3)cn2c2ccccc12 [Compound 2-30, 2-[4-(5-Chloropyridin-2-yl)piperazin-1-ylmethyl]pyrrolo[1,2-a]quinazolin-5(4H)-one] | 100 | 72 | 
O=c1[nH]c2cc(CN3CCN(c4ccc(Cl)cc4)CC3)cn2c2ccsc12 [Compound 2-42, 7-[4-(4-Chlorophenyl)piperazin-1-ylmethyl]pyrrolo[1,2-a]thieno[2,3-e]pyrimidin-4(5H)-one] | 100 |  | 
O=c1[nH]c2cc(CN3CCCC3)cn2c2ccsc12 [Compound 2-43, 7-(Pyrrolidin-1-ylmethyl)pyrrolo[1,2-a]thieno[2,3-e]pyrimidin-4(5H)-one] | 91 |  | 
O=c1[nH]c2cc(CN3CCN(c4ccccn4)CC3)cn2c2ccc(F)cc12 [Compound 2-44, 7-Fluoro-2-[4-(pyridin-2-yl)piperazin-1-ylmethyl]pyrrolo[1,2-a]quinazolin-5(4H)-one] | 98 | 81 | 
O=c1[nH]c2cc(CN3CCN(c4ccc(F)cc4)CC3)cn2c2ccc(F)cc12 [Compound 2-45, 7-Fluoro-2-[4-(4-fluorophenyl)piperazin-1-ylmethyl]pyrrolo[1,2-a]quinazolin-5(4H)-one] | 100 |  | inhibition in vivo at 1 mg/kg ([1]; MNU 50 mg/kg i.p., test compound 1 mg/kg orally once 30 minutes before MNU): 81%
CN(C)CCOc1cc(F)ccc1N1CCN(Cc2cc3[nH]c(=O)c4ccccc4n3c2)CC1 [Compound 2-46, 2-[4-[2-(2-Dimethylaminoethoxy)-4-fluorophenyl]piperazin-1-ylmethyl]pyrrolo[1,2-a]quinazolin-5(4H)-one] | 85 |  | 
O=c1[nH]c2cc(CN3CCC(N4CCOCC4)CC3)cn2c2ccccc12 [Compound 2-47, 2-[4-(Morpholin-4-yl)piperidin-1-ylmethyl]pyrrolo[1,2-a]quinazolin-5(4H)-one] | 99 |  | 
[2H]C([2H])(c1cc2[nH]c(=O)c3ccccc3n2c1)N1CCN(c2ccc(F)cc2)CC1 [Compound 4-1, 2-[1-[4-(4-Fluorophenyl)piperazin-1-yl]-1,1-dideuteriomethyl]pyrrolo[1,2-a]quinazolin-5(4H)-one] | 100 | 94 | 
O=C(c1cc2[nH]c(=O)c3ccccc3n2c1)N1CCCNCC1 [Compound 5-1, 2-(Homopiperazine-1-carbonyl)pyrrolo[1,2-a]quinazolin-5(4H)-one hydrochloride] | 99 |  | 
O=C(c1cc2[nH]c(=O)c3ccccc3n2c1)N1CCNCC1 [Compound 5-2, 2-(piperazine-1-carbonyl)pyrrolo[1,2-a]quinazolin-5(4H)-one] | 85 |  | 
O=C(c1cc2[nH]c(=O)c3ccccc3n2c1)N1CCCN(C(=O)C2CC2)CC1 [Compound 6-1, 2-[4-Cyclopropylcarbonylhomopiperazine-1-carbonyl]pyrrolo[1,2-a]quinazolin-5(4H)-one] | 90 |  | 

The next lines start with results.

inhibition at 10 µM (human recombinant PARP1) [%] | SMILES | inhibition in vivo at 10 mg/kg ([1]; MNU 50 mg/kg i.p.) [%] | further results
100 | O=c1[nH]c2cc(CN3CCN(c4ccc(F)cc4)CC3)cn2c2ccccc12 [Compound 2-1, 2-[4-(4-Fluorophenyl)piperazin-1-ylmethyl]pyrrolo[1,2-a]quinazolin-5 (4H)-one] |  | inhibition in vivo at 10 mg/kg ([1]; MNU 60 mg/kg i.p.): 65%; Retinal vascular hyperpermeability inhibition rate (%) [2]: 63%
99 | O=c1[nH]c2cc(CN3CCN(c4ccccc4F)CC3)cn2c2ccccc12 [Compound 2-9, 2-[4-(2-Fluorophenyl)piperazin-1-ylmethyl]pyrrolo[1,2-a]quinazolin-5(4H)-one] | 25 | 
100 | O=c1[nH]c2cc(CN3CCN(c4ccc(Cl)cc4)CC3)cn2c2ccccc12 [Compound 2-12, 2-[4-(4-Chlorophenyl)piperazin-1-ylmethyl]pyrrolo[1,2-a]quinazolin-5(4H)-one] |  | inhibition in vivo at 30 mg/kg ([1]; MNU 60 mg/kg i.p., test compound 30 mg/kg orally once 30 minutes before MNU): 47%
100 | COc1ccc(N2CCN(Cc3cc4[nH]c(=O)c5ccccc5n4c3)CC2)cc1 [Compound 2-16, 2-[4-(4-Methoxyphenyl)piperazin-1-ylmethyl]pyrrolo[1,2-a]quinazolin-5(4H)-one] | 29 | 
100 | O=c1[nH]c2cc(CN3CCN(c4ccc(F)cc4F)CC3)cn2c2ccccc12 [Compound 2-35, 2-[4-(2,4-Difluorophenyl)piperazin-1-ylmethyl]pyrrolo[1,2-a]quinazolin-5(4H)-one] | 61 | 
100 | COc1cc(F)ccc1N1CCN(Cc2cc3[nH]c(=O)c4ccccc4n3c2)CC1 [Compound 2-39, 2-[4-(4-Fluoro-2-methoxyphenyl)piperazin-1-ylmethyl]pyrrolo[1,2-a]quinazolin-5(4H)-one] | 84 | 
100 | O=c1[nH]c2cc(CN3CCN(c4ccc5c(c4)OCO5)CC3)cn2c2ccccc12 [Compound 2-40, 2-[4-(1,3-Benzodioxol-5-yl)piperazin-1-ylmethyl]pyrrolo[1,2-a]quinazolin-5(4H)-one] | 88 | 
100 | O=c1[nH]c2cc(CN3CCN(c4ccc(O)cc4)CC3)cn2c2ccccc12 [Compound 3-1, 2-[4-(4-Hydroxyphenyl)piperazin-1-ylmethyl]pyrrolo[1,2-a]quinazolin-5(4H)-one] |  | 
